Earlier results as cited in patent US20220333071A1, “METHODS OF MAKING, EXPANDING AND PURIFYING MIDBRAIN DOPAMINERGIC PROGENITOR CELLS” (BrainXell, Inc., priority 2021, published 2022).
Blank lines part the entries; values can stand above or below the molecule they belong to.

Legend:
[1] = test system: BMP4-induced phosphorylation of Smads 1, 5 and 8; details: HEK293 cells
KDR (VEGFR-2) = KDR (VEGFR-2) (Homo sapiens, UniProt P35968)
ALK-3 = ALK-3 (Homo sapiens, UniProt P36894); details: in vitro kinase assays
ALK-1 = ALK-1 (Homo sapiens, UniProt P37023); details: in vitro kinase assays
ALK5 = biological target: T1, ALK5 (Homo sapiens, UniProt P36897)
T1 sequence (P36897 34-503): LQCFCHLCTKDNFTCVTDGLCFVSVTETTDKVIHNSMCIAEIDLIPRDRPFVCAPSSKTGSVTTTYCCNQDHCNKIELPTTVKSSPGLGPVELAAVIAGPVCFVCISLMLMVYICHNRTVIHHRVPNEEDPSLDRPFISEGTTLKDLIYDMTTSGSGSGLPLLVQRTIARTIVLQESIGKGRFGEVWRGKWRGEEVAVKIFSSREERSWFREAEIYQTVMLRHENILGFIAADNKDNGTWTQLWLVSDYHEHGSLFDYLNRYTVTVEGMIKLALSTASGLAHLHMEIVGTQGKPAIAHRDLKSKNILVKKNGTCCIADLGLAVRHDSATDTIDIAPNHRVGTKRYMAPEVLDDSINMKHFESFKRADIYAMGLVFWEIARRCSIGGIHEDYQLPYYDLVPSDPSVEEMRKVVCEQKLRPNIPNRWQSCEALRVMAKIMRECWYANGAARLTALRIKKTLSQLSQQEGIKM

PDGFRβ = PDGFRβ (Homo sapiens, UniProt P09619)
[2] = test system: Wnt-mediated transcription; details: read-out: IC50, inhibition of Wnt-mediated transcription

ALK-3, sequence (P36894 24-532, species assumed): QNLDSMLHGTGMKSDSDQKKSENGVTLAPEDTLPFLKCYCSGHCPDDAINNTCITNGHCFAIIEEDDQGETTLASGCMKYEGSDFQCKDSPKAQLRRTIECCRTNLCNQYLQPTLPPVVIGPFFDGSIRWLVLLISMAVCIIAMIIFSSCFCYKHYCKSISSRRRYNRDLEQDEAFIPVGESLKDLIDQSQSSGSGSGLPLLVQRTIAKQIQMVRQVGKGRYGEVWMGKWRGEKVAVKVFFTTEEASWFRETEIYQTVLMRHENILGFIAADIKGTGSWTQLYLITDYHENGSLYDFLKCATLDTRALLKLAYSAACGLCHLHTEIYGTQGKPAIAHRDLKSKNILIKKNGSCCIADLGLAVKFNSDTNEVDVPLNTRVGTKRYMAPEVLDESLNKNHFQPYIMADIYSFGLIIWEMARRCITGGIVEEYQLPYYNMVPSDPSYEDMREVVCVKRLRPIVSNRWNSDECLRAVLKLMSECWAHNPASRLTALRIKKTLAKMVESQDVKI
KDR (VEGFR-2), sequence (P35968 20-1356, species assumed): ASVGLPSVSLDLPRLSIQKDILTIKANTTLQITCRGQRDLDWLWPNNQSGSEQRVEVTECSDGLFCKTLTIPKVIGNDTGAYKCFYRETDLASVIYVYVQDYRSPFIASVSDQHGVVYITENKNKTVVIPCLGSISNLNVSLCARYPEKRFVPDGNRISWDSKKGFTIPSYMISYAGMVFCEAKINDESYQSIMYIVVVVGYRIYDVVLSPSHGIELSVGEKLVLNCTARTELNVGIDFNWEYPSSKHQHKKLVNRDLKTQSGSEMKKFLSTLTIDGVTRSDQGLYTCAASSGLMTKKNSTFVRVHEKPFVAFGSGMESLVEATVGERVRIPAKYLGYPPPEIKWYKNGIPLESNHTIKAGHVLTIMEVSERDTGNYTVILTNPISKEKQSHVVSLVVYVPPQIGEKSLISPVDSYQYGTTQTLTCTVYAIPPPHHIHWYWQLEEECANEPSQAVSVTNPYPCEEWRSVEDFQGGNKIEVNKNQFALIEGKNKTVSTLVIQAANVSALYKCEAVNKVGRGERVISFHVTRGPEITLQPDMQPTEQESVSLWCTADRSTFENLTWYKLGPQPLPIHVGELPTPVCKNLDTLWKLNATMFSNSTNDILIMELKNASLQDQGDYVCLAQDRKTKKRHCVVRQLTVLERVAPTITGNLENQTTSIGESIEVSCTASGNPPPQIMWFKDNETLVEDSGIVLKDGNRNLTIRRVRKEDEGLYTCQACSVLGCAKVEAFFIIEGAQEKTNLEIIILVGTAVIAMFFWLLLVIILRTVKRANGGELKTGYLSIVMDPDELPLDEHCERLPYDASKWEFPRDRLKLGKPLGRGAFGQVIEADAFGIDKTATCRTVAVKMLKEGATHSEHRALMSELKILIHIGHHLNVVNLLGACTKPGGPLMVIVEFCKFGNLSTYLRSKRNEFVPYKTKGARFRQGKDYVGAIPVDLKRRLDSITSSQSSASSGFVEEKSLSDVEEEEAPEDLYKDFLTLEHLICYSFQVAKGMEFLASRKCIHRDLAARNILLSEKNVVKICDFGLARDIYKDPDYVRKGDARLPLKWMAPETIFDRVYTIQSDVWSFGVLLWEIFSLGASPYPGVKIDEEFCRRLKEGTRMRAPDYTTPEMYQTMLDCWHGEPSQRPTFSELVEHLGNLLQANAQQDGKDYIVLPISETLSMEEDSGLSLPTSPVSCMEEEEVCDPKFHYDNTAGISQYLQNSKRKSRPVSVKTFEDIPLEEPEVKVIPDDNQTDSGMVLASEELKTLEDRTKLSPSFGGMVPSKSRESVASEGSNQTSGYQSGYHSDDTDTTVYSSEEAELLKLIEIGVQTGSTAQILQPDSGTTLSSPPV
ALK-1, sequence (P37023 22-503, species assumed): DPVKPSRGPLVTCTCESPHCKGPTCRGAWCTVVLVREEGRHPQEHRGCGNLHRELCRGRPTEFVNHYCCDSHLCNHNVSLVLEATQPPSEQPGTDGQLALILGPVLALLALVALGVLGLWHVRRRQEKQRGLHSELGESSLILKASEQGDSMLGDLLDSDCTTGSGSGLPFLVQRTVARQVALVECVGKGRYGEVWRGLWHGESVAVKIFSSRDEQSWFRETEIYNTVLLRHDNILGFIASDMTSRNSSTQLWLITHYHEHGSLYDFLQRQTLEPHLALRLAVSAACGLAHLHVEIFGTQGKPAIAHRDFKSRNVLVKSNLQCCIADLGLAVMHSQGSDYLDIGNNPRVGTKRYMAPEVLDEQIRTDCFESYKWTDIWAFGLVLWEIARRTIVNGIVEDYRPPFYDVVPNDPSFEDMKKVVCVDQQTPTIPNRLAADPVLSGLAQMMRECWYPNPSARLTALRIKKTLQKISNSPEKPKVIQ
PDGFRβ, sequence (P09619 33-1106, species assumed): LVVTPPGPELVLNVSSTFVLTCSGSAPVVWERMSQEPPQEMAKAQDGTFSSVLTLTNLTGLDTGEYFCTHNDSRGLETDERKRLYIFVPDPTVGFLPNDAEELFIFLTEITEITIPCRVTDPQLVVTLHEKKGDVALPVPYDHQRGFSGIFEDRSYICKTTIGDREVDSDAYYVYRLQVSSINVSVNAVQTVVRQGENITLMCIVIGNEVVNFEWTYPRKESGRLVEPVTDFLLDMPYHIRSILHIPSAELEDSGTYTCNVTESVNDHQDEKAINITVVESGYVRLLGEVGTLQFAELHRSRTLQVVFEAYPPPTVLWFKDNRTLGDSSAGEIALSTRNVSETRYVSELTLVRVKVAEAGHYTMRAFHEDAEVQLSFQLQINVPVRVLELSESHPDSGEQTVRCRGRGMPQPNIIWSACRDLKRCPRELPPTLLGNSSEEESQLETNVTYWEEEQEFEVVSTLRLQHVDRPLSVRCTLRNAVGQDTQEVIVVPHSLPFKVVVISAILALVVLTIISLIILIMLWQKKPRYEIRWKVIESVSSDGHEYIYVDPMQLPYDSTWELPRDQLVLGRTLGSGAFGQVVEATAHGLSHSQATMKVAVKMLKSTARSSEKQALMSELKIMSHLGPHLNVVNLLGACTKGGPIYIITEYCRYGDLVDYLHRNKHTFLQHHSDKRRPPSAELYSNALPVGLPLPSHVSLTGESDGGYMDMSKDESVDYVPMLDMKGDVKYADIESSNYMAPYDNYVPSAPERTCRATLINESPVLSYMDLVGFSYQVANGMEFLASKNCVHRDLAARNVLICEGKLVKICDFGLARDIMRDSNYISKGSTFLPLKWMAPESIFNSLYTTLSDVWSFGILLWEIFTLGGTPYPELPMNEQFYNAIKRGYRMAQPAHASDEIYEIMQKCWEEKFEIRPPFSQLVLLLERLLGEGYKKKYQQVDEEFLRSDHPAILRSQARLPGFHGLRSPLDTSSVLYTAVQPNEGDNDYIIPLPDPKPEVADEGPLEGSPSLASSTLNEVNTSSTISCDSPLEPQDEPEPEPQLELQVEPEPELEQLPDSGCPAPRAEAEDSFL

IC50 values against rodent GSK3-β homologs (rodent GSK3-β homologs): nanomolar
SMILES: Cc1c[nH]c(-c2cnc(NCCNc3ccc(C#N)cn3)nc2-c2ccc(Cl)cc2Cl)n1 [CHIR99021, 6-(2-(4-(2,4-dichlorophenyl)-5-(4-methyl-1H-imidazol-2-yl)pyrimidin-2-ylamino)ethylamino) nicotinonitrile]

inhibition of KDR (VEGFR-2) (KDR (VEGFR-2)): no significant inhibition
selectivity for ALK-2 over ALK-3 (ALK-3): 19 fold
selectivity for ALK-2 over ALK-1 (ALK-1): 6 fold
inhibition of ALK5 (ALK5): no significant inhibition
inhibition of PDGFRβ (PDGFRβ): no significant inhibition
SMILES: CC(C)Oc1ccc(-c2cnc3c(-c4ccnc5ccccc45)cnn3c2)cc1 [DMH-1, 4-[6-[4-(1-Methylethoxy)phenyl]pyrazolo[1,5-a]pyrimidin-3-yl]-quinoline]
inhibition of AMPK (AMPK): no significant inhibition
BMP4-induced phosphorylation of Smads 1, 5 and 8 [1]: Blocks

IC50 [2]: 0.074 nM
SMILES: Cc1cc(-c2ccc(CC(=O)Nc3ccc(-c4cccnc4)cc3)cc2)ccn1 [Wnt-059, 4-(2-Methyl-4-pyridinyl)-N-[4-(3-pyridinyl)phenyl]benzeneacetamide]
